Values of other authors as cited in article PMC6270655, “Mixed Antimony(V) Complexes with Different Sugars to Modulate the Oral Bioavailability of Pentavalent Antimonial Drugs” (Molecules, 2014).

Set-up: method as in PMID 22573856

## CCCCCCCCCCCCCCCCOP(=O)([O-])OCC[N+](C)(C)C [miltefosine, hexadecylphosphocholine]
  half-life: ~ 150 h
